Measurements published in ChEMBL document CHEMBL3596195, “Novel cajaninstilbene acid derivatives as antibacterial agents” (Eur J Med Chem, 2015).
In brackets after ≈: the same amount, converted by molar mass.

Tests used:
Assay type in all cases: functional
Staphylococcus aureus [1] = assay: Antibacterial activity against methicillin-resistant Staphylococcus aureus ATCC523512 assessed as bacterial growth inhibition after 24 hrs by broth dilution method; conditions: ATCC523512, 24 h
Staphylococcus aureus [2] = assay: Antibacterial activity against Staphylococcus aureus ATCC25923 assessed as bacterial growth inhibition after 24 hrs by broth dilution method; conditions: ATCC25923, 24 h
Staphylococcus aureus [3] = assay: Antibacterial activity against methicillin-resistant Staphylococcus aureus ATCC515992 assessed as bacterial growth inhibition after 24 hrs by broth dilution method; conditions: ATCC515992, 24 h
Staphylococcus aureus [4] = assay: Antibacterial activity against methicillin-resistant Staphylococcus aureus ATCC510019 assessed as bacterial growth inhibition after 24 hrs by broth dilution method; conditions: ATCC510019, 24 h
Bacillus subtilis = assay: Antibacterial activity against Bacillus subtilis ATCC6633 assessed as bacterial growth inhibition after 24 hrs by broth dilution method; conditions: ATCC6633, 24 h
Staphylococcus aureus [5] = assay: Antibacterial activity against methicillin-resistant Staphylococcus aureus ATCC43300 assessed as bacterial growth inhibition after 24 hrs by broth dilution method; conditions: ATCC43300, 24 h
Pseudomonas aeruginosa = assay: Antibacterial activity against Pseudomonas aeruginosa ATCC2785 assessed as bacterial growth inhibition after 24 hrs by broth dilution method; conditions: ATCC2785, 24 h
Staphylococcus aureus [6] = assay: Antibacterial activity against methicillin-resistant Staphylococcus aureus ATCC425055 assessed as bacterial growth inhibition after 24 hrs by broth dilution method; conditions: ATCC425055, 24 h
Staphylococcus aureus [7] = assay: Antibacterial activity against methicillin-resistant Staphylococcus aureus ATCC62202 assessed as bacterial growth inhibition after 24 hrs by broth dilution method; conditions: ATCC62202, 24 h
Escherichia coli = assay: Antibacterial activity against Escherichia coli ATCC25922 assessed as bacterial growth inhibition after 24 hrs by broth dilution method; conditions: ATCC25922, 24 h
Proteus vulgaris = assay: Antibacterial activity against Proteus vulgaris ATCC49101 assessed as bacterial growth inhibition after 24 hrs by broth dilution method; conditions: ATCC49101, 24 h
Staphylococcus aureus [8] = assay: Antibacterial activity against methicillin-resistant Staphylococcus aureus ATCC513045 assessed as bacterial growth inhibition after 24 hrs by broth dilution method; conditions: ATCC513045, 24 h
Staphylococcus aureus [9] = assay: Antibacterial activity against methicillin-resistant Staphylococcus aureus ATCC51033 assessed as bacterial growth inhibition after 24 hrs by broth dilution method; conditions: ATCC51033, 24 h
[10] = tested on: Staphylococcus epidermidis; assay: Antibacterial activity against Staphylococcus epidermidis ATCC12228 assessed as bacterial growth inhibition after 24 hrs by broth dilution method; conditions: ATCC12228, 24 h
Staphylococcus aureus [11] = assay: Antibacterial activity against methicillin-resistant Staphylococcus aureus ATCC52056 assessed as bacterial growth inhibition after 24 hrs by broth dilution method; conditions: ATCC52056, 24 h

SMILES	MIC (Staphylococcus aureus [1]) [µg/mL]	MIC (Staphylococcus aureus [2]) [µg/mL]	MIC (Staphylococcus aureus [3]) [µg/mL]	MIC (Staphylococcus aureus [4]) [µg/mL]	MIC (Bacillus subtilis) [µg/mL]	MIC (Staphylococcus aureus [5]) [µg/mL]	MIC (Pseudomonas aeruginosa) [µg/mL]	MIC (Staphylococcus aureus [6]) [µg/mL]	MIC (Staphylococcus aureus [7]) [µg/mL]	MIC (Escherichia coli) [µg/mL]	MIC (Proteus vulgaris) [µg/mL]	MIC (Staphylococcus aureus [8]) [µg/mL]	MIC (Staphylococcus aureus [9]) [µg/mL]	MIC [10] [µg/mL]	MIC (Staphylococcus aureus [11]) [µg/mL]
COC(=O)c1c(/C=C/c2ccccc2)cc(OC)c(CC=C(C)C)c1O	> 128	> 128	> 128	> 128	> 128	128 (≈ 363 µM)	> 128	128 (≈ 363 µM)	128 (≈ 363 µM)	> 128	> 128	128 (≈ 363 µM)	> 128	> 128	> 128
COC(=O)c1c(O)cc(OC)cc1/C=C/c1cccc(C#N)c1	> 128	> 128	64 (≈ 207 µM)	> 128	> 128	> 128	> 128	> 128	> 128	> 128	> 128	> 128	128 (≈ 414 µM)	> 128	> 128
COc1cc(/C=C/c2ccc(F)cc2)c(C(=O)O)c(O)c1CC=C(C)C	4 (≈ 11.2 µM)	8 (≈ 22.4 µM)	8 (≈ 22.4 µM)	1 (≈ 2.81 µM)	1 (≈ 2.81 µM)	4 (≈ 11.2 µM)	> 64	2 (≈ 5.61 µM)	1 (≈ 2.81 µM)	> 128	> 64	8 (≈ 22.4 µM)	1 (≈ 2.81 µM)	4 (≈ 11.2 µM)	1 (≈ 2.81 µM)
CC1(C)S[C@@H]2[C@H](NC(=O)Cc3ccccc3)C(=O)N2[C@H]1C(=O)O [PENICILLIN G]	32 (≈ 95.7 µM)	2 (≈ 5.98 µM)	32 (≈ 95.7 µM)	32 (≈ 95.7 µM)	2 (≈ 5.98 µM)	32 (≈ 95.7 µM)	16 (≈ 47.8 µM)	32 (≈ 95.7 µM)	32 (≈ 95.7 µM)	64 (≈ 191 µM)	> 16	32 (≈ 95.7 µM)	32 (≈ 95.7 µM)	2 (≈ 5.98 µM)	64 (≈ 191 µM)
COC(=O)c1c(O)cc(OC)cc1/C=C/c1ccc(OC)cc1	> 128	> 128	> 128	128 (≈ 407 µM)	> 128	> 128	128 (≈ 407 µM)	> 128	> 128	> 128	> 128	> 128	> 128	> 128	> 128
COC(=O)c1c(O)cc(OC)cc1/C=C/c1ccc(F)cc1	> 128	> 128	128 (≈ 423 µM)	> 128	> 128	> 128	> 128	> 128	> 128	> 128	> 128	> 128	> 128	> 128	> 128
COC(=O)c1c(O)cc(OC)cc1/C=C/c1ccc(Cl)cc1	> 128	> 128	> 128	> 128	128 (≈ 402 µM)	> 128	> 128	> 128	128 (≈ 402 µM)	> 128	> 128	> 128	> 128	> 128	> 128
COC(=O)c1c(/C=C/c2ccc(Cl)cc2)cc(OC)c(CC=C(C)C)c1O	> 128	> 128	> 128	> 128	> 128	> 128	> 128	> 128	128 (≈ 331 µM)	> 128	> 128	> 128	> 128	128 (≈ 331 µM)	> 128
COc1cc(/C=C/c2ccc(Cl)cc2)c(C(=O)O)c(O)c1CC=C(C)C	4 (≈ 10.7 µM)	8 (≈ 21.5 µM)	4 (≈ 10.7 µM)	1 (≈ 2.68 µM)	2 (≈ 5.36 µM)	2 (≈ 5.36 µM)	> 64	4 (≈ 10.7 µM)	2 (≈ 5.36 µM)	128 (≈ 343 µM)	> 64	4 (≈ 10.7 µM)	0.5 (≈ 1.34 µM)	4 (≈ 10.7 µM)	2 (≈ 5.36 µM)
COC(=O)c1c(O)cc(OC)cc1/C=C/c1ccc(C)cc1	> 128	> 128	> 128	> 128	> 128	> 128	> 128	128 (≈ 429 µM)	> 128	> 128	> 128	> 128	128 (≈ 429 µM)	> 128	> 128
COC(=O)c1c(/C=C/c2ccc(F)cc2F)cc(OC)c(CC=C(C)C)c1O	64 (≈ 165 µM)	> 128	> 128	> 128	128 (≈ 330 µM)	> 128	> 128	128 (≈ 330 µM)	64 (≈ 165 µM)	> 128	> 128	> 128	128 (≈ 330 µM)	64 (≈ 165 µM)	128 (≈ 330 µM)
COC(=O)c1c(/C=C/c2cccc(C#N)c2)cc(OC)c(CC=C(C)C)c1O	> 128	> 128	> 128	> 128	> 128	> 128	> 128	> 128	128 (≈ 339 µM)	> 128	> 128	> 128	> 128	128 (≈ 339 µM)	> 128
COC(=O)c1c(O)cc(OC)cc1/C=C/c1ccc(F)cc1F	> 128	> 128	> 128	> 128	> 128	128 (≈ 400 µM)	> 128	128 (≈ 400 µM)	> 128	> 128	> 128	> 128	128 (≈ 400 µM)	> 128	> 128
COc1cc(/C=C/c2ccc(C)cc2)c(C(=O)O)c(O)c1CC=C(C)C	32 (≈ 90.8 µM)	16 (≈ 45.4 µM)	32 (≈ 90.8 µM)	32 (≈ 90.8 µM)	16 (≈ 45.4 µM)	32 (≈ 90.8 µM)	> 64	16 (≈ 45.4 µM)	32 (≈ 90.8 µM)	> 128	> 64	8 (≈ 22.7 µM)	16 (≈ 45.4 µM)	32 (≈ 90.8 µM)	16 (≈ 45.4 µM)
COc1cc(O)c(C(=O)O)c(/C=C/c2ccccc2)c1	> 128	> 128	> 128	> 128	64 (≈ 237 µM)	> 128	> 128	> 128	128 (≈ 474 µM)	> 128	> 128	> 128	> 128	> 128	128 (≈ 474 µM)
COC(=O)c1c(O)cc(OC)cc1/C=C/c1cccc(F)c1	> 128	> 128	> 128	128 (≈ 423 µM)	128 (≈ 423 µM)	> 128	128 (≈ 423 µM)	> 128	> 128	128 (≈ 423 µM)	> 128	> 128	> 128	128 (≈ 423 µM)	> 128
COC(=O)c1c(O)cc(OC)cc1/C=C/c1ccccc1F	> 128	> 128	> 128	> 128	128 (≈ 423 µM)	> 128	128 (≈ 423 µM)	> 128	> 128	> 128	> 128	> 128	> 128	128 (≈ 423 µM)	> 128
